Assay results from ChEMBL document CHEMBL1151392, “Structure-activity relations of polyfunctional diterpenes of the daphnane type. I. Revised structure for resiniferatoxin and structure-activity relations of resiniferonol and some of its esters” (J Nat Prod, 1982).

Assays:
Mus musculus [1] = species on record: Mus musculus; assay: Toxicity in NMRI mouse assessed as irritant dose 50 causing ear redness after 24 hours assessed per ear; type: organism-based; settings: in vivo
Mus musculus [2] = species on record: Mus musculus; assay: Toxicity in NMRI mouse assessed as irritant dose 50 causing ear redness after 5 hours assessed per ear; type: organism-based; settings: in vivo, topical_or_ocular

| Compound | Activity (Mus musculus [1]) | Activity (Mus musculus [2]) |
| --- | --- | --- |
| COC(=O)Cc1ccc(O)c(OC)c1 | > 100 nmol | 25 nmol |
| C=C(C)[C@]12C[C@@H](C)[C@@]34O[C@](C)(O[C@@H]1[C@@H]3C=C(COC(=O)Cc1cc(OC)cc(OC)c1)C[C@]1(O)C(=O)C(C)=C[C@@H]41)O2 | > 5 nmol | 2.6 ×10⁻² nmol |
| C=C(C)[C@]12C[C@@H](C)[C@@]34O[C@](Cc5ccccc5)(O[C@@H]1[C@@H]3C=C(COC(=O)CCCCC)C[C@]1(O)C(=O)C(C)=C[C@@H]41)O2 | > 10 nmol | 8.9 ×10⁻² nmol |
| C=C(C)[C@]12C[C@@H](C)[C@@]34O[C@](CCCCCCCCCCCCC)(O[C@@H]1[C@@H]3C=C(CO)C[C@]1(O)C(=O)C(C)=C[C@@H]41)O2 | 0.8 nmol | > 30 nmol |
| C=C(C)[C@]12C[C@@H](C)[C@@]34O[C@](Cc5ccccc5)(O[C@@H]1[C@@H]3C=C(COC(=O)Cc1cc(OC)cc(OC)c1)C[C@]1(O)C(=O)C(C)=C[C@@H]41)O2 | > 20 nmol | 6.2 ×10⁻⁴ nmol |
| C=C(C)[C@]12C[C@@H](C)[C@@]34O[C@](Cc5ccccc5)(O[C@@H]1[C@@H]3C=C(CO)C[C@]1(O)C(=O)C(C)=C[C@@H]41)O2 | > 20 nmol | 1 nmol |
| C=C(C)[C@]1(O)C[C@@H](C)[C@@]2(O)[C@@H](C=C(COC(=O)Cc3ccccc3)C[C@]3(O)C(=O)C(C)=C[C@@H]23)[C@H]1O | > 100 nmol | > 100 nmol |
| C=C(C)[C@]12C[C@@H](C)[C@@]34O[C@](Cc5ccccc5)(O[C@@H]1[C@@H]3C=C(COC(C)=O)C[C@]1(O)C(=O)C(C)=C[C@@H]41)O2 | > 10 nmol | > 10 nmol |
| C=C(C)[C@]12C[C@@H](C)[C@@]34O[C@](CCCCCCCCCCCCC)(O[C@@H]1[C@@H]3C=C(COC(=O)Cc1cc(OC)cc(OC)c1)C[C@]1(O)C(=O)C(C)=C[C@@H]41)O2 | > 5 nmol | > 5 nmol |
| C=C(C)[C@]12C[C@@H](C)[C@@]34O[C@](CCCCCCCCCCCCC)(O[C@@H]1[C@@H]3C=C(COC(=O)CCCCCCCCCCCCC)C[C@]1(O)C(=O)C(C)=C[C@@H]41)O2 | > 60 nmol | > 60 nmol |
| C=C(C)[C@]12C[C@@H](C)[C@@]34O[C@](Cc5ccccc5)(O[C@@H]1[C@@H]3C=C(COC(=O)Cc1ccccc1)C[C@]1(O)C(=O)C(C)=C[C@@H]41)O2 | > 10 nmol | 1.7 ×10⁻³ nmol |
| C=C(C)[C@]12C[C@@H](C)[C@@]34O[C@](Cc5ccccc5)(O[C@@H]1[C@@H]3C=C(COC(=O)c1ccccc1)C[C@]1(O)C(=O)C(C)=C[C@@H]41)O2 | > 10 nmol | 1.2 ×10⁻² nmol |
| C=C(C)[C@]12C[C@@H](C)[C@@]34O[C@](C)(O[C@@H]1[C@@H]3C=C(CO)C[C@]1(O)C(=O)C(C)=C[C@@H]41)O2 | 12.9 nmol | > 100 nmol |
| C=C(C)[C@]12C[C@@H](C)[C@@]34O[C@](Cc5ccccc5)(O[C@@H]1[C@@H]3C=C(COC(=O)Cc1ccc(OC)c(OC)c1)C[C@]1(O)C(=O)C(C)=C[C@@H]41)O2 [RESINIFERATOXIN METHYL ETHER] | > 20 nmol | 4.7 ×10⁻⁴ nmol |
| C=C(C)[C@]12C[C@@H](C)[C@@]34O[C@](Cc5ccccc5)(O[C@@H]1[C@@H]3C=C(COC(=O)Cc1ccc(O)c(OC)c1)C[C@]1(O)C(=O)C(C)=C[C@@H]41)O2 [RESINIFERATOXIN] | > 20 nmol | 1.6 ×10⁻⁵ nmol |
| C=C(C)[C@]1(O)C[C@@H](C)[C@@]2(O)[C@@H](C=C(CO)C[C@]3(O)C(=O)C(C)=C[C@@H]23)[C@H]1O [RESINIFERONOL] | > 100 nmol | > 100 nmol |
